Measurements as given in publication PMC3621174, “A cell based high-throughput screening approach for the discovery of new inhibitors of respiratory syncytial virus” (Virology Journal, 2013).
Read-outs that look alike come from different tables or passages of the source.

Columns and labels:
[1] = Cytotoxicity dose response in HEp-2 cells (Cell Titer Glo); assay type: cell-based; conditions: human, HEp-2, 8 point dose response, duplicate
Experimental: (§1) Figure 3 Dose response of ribavirin. HEp-2 cells were plated in 384-well black tissue culture plates at 2,000 cells per well. Ribavirin or carrier control (DMSO) were diluted to 6x in Complete DMEM/F12 and serially diluted 1:2 resulting in an 8 point dose response dilution series. (final plate well concentration ranging from 50 uM to 0.39 uM and a final DMSO concentration of 0.5%). For dose response screening, cells were infected with a 1:500 dilution of virus (viral MOI = 0.5). The assay plates were incubated for six days at 37°C, 5% CO2 and 90% relative humidity and the inhibitory effects of the drug were assessed using Cell Titer Glo. […]
(§2) Following the six day incubation period, the assay plates were equilibrated to room temperature for 30 min. […] At the end of the incubation, luminescence was measured using a multi-label reader (Envision, PerkinElmer, Wellesley, MA) with an integration time of 0.1 s.
(§3) HTS data were analyzed using ActivityBase software (IDBS, Inc., Guildford, UK). Antiviral activity is described as percent CPE inhibition = 100*((luminescence compound well minus median luminescence virus control)/ (median luminescence cell control minus median luminescence virus control)). Percent viability = 100 * luminescence compound well/median luminescence cell control. […] Two dose-response curves were calculated for each substance. […] The selective index (SI) was calculated as SI = CC50/EC50. […]

[2] = test system: hRSV (strain Long); parameters: method as in PMID 14638398; conditions: previously reported value; cited from earlier work
[3] = test system: hRSV (strain Long); assay: 384-well CPE inhibition assay, hRSV-infected HEp-2 cells, Cell Titer Glo endpoint; assay type: cell-based; conditions: human respiratory syncytial virus, 144 h; HEp-2, virus MOI = 0.5, 8 point dose response 50-0.39 uM, 6 days, triplicate; read-out: EC50 (efficacy)
Experimental: as §1, §2, §3

[4] = test system: RSV strain Long; assay: Plaque reduction assay in HEp-2 cells; assay type: cell-based, Human respiratory syncytial virus; conditions: 25 μM test compound, MOI 0.1, HEp-2
Experimental: These compounds were evaluated for their ability to reduce the amount of infectious virus produced in cell culture. HEp-2 cells were infected with hRSV in the presence of 25 μM test compound. Media supernatants were removed and 10-fold serial-diluted onto a confluent field of uninfected, untreated HEp-2 cells, bound, washed, and overlaid with agarose. After six days, plaques were fixed, stained, and counted to determine the amount of infectious virus in the original, drugged supernatants (Figure 8).
Figure 8 Plaque reduction assay in HEp-2 cells. RSV strain Long was assayed for its sensitivity to five compounds. Supernatants were harvested from test (25 μM) or control compound (35 μM) treated RSV-infected HEp-2 cells at a multiplicity of infection (MOI) of 0.1. Serial dilutions of the supernatants were added to monolayers of HEp-2 cells in 24-well plates. Cells were fixed after 6 days and stained with neutral red. Plaque reduction assays were performed in triplicate per compound. CC, uninfected cell control; VC, untreated virus-infected control. The concentration of DMSO in each assay well, including all control wells was 0.5%.
Compounds or carrier control (DMSO) were diluted in Complete DMEM/F12 and 2 mL per well was dispensed to 6-well assay plates (final plate well concentration was 25 μM, ribavirin; 35 μM and final DMSO concentration 0.5%). […]

SMILES	CC50 at 6 days [1]	EC50 [2]	EC50 [3]	reduction in virus titer (pfu/mL) from control [4]
NC(=O)c1ncn([C@@H]2O[C@H](CO)[C@@H](O)[C@H]2O)n1 [ribavirin]	~75 µM	41 µM	~40 µM	
COc1ccccc1CNC(=O)C1CCN(S(=O)(=O)c2cccc3nonc23)CC1 [compound 93616803]				4 log
O=C(O)C1CC=CCC1C(=O)Nc1ccc(S(=O)(=O)N2CCCc3ccccc32)cc1 (centres unmarked) [SID 93616804]				6.5 log
